According to patent publication US6469028B1, “Synthesis and use of retinoid compounds having negative hormone and/or anatgonist activities” (Allergan, Inc., priority 1995, dated 2002):

Columns and labels:
RAR-γ-VP-16 = RAR-γ-VP-16 activity at the ΔMTV-TREp-Luc reporter; assay type: cell-based
Text: We have also obtained results which support conclusions identical to those presented under Example 11 by employing RAR-γ-VP-16 and expression constructs and the ΔMTV-TREp-Luc reporter plasmid instead of the RAR-γ-VP-16 and ER-RXR-α expression constructs in combination with the ERE-tk-Luc reporter plasmid. […] Therefore, AGN 193109 repressed RAR-γ-VP-16 activity when this chimeric receptor was directly bound to a retinoic acid receptor response element instead of indirectly bound to an estrogen response element in the promoter region of the reporter plasmid. […] Instead, the critical feature embodied by an experimental system useful for identifying retinoid negative hormones involves detecting the ability of a compound to repress the activity of an RAR engineered to contain a constitutive transcription activation domain.

[1] = Example 4: retinoid-induced hypertriglyceridemia (serum triglycerides); assay type: in vivo, rats
Procedure: Male Fischer rats (6-7 weeks old, n=5) were treated by intragastric intubation with corn oil (vehicle), AGN 191659, AGN 193109 or a combination of AGN 191659 and AGN 193109. AGN 191659 and AGN 193109 were given as fine suspensions in corn oil.
Serum was separated from blood by low speed centrifugation. Total serum triglycerides (triglycerides plus glycerol) were measured with a standard spectrophotometric endpoint assay available commercially as a kit and adapted to a 96-well plate format. Serum triglyceride levels are expressed as the mean±SD. Means were compared statistically by one-way analysis of variance followed by Dunnett's test if significant differences were found. Differences were considered significant at P<0.05.

rabbits = assay: Example 24: rabbit model of proliferative vitreoretinopathy (PVR); assay type: in vivo
[2] = test system: retinal pigment epithelium (RPE) cells; assay: Example 19: proliferation of primary retinal pigment epithelium cultures; assay type: cell-based, human
Procedure: Primary cultures of human retinal pigment epithelium (RPE) were established according to the method described by Campochiaro et al. in Invest. Opthal & Vis. Sci. 32:65 (1991). 5×10^4 cells were plated in 16-mm wells of 24-well multiwell plates in DMEM (Gibco) containing 5% FBS. […] Cells were fed with fresh media containing the appropriate concentrations of these compounds every two days for a total of five days of treatment. Cells were removed from the plates by gentle digestion with trypsin and the number of cells was counted with an electronic cell counter.
AGN 193109 was tested for its ability to potentiate the anti-proliferative effect of 13-cis retinoic acid (13-cis RA) in primary RPE cultures using conditions and techniques to measure RPE cell proliferation described above. […] More particularly, 13-cis RA is useful in the treatment of several disease states, including acne (Peck et al. N. Engl. J. Med. 300:329 (1977); Jones et al. Br. J. Dermatol. 108:333 (1980)), and squamous cell carcinoma of the skin and cervix in combination treatment with interferon 2α (Lippman et al. J. Natl. Cancer Inst. 84:241 (1992); Moore et al. Seminars in Hematology 31:31 (1994)).
We next tested the ability of AGN 193109 to potentiate the activities of other nuclear receptor hormones in primary RPE cell cultures. Dexamethasone, a synthetic glucocorticoid receptor agonist, is one member of a class of compounds that have been used clinically for their potent anti-inflammatory and immunosuppressive properties. Thyroid hormone (T3; […]) is a natural thyroid hormone receptor agonist used primarily for hormone replacement therapy in the treatment of hypothyroidism.

RARα = target: T1, RARα (Homo sapiens, UniProt P10276); assay: Example 7: inhibition of RAR transactivation by ATRA, CV-1 cells; assay type: cell-based; set-up: host or cells: TNT-coupled reticulocyte lysate in vitro transcription-translation; conditions: equal doses of AGN 193109 and ATRA (10 nM ATRA)
T1 sequence (P10276 1-462): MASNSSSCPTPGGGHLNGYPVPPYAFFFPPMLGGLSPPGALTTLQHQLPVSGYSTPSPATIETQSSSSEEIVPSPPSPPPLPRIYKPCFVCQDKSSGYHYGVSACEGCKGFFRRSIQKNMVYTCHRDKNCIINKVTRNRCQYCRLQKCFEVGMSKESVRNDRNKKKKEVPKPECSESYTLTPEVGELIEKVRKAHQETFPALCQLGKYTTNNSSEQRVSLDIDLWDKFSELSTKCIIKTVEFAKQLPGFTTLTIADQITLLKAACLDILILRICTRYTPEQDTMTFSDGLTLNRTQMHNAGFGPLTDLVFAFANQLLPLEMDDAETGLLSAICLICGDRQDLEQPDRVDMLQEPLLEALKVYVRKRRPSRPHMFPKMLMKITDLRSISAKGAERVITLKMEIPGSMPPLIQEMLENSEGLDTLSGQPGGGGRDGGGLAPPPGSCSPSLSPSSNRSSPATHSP
Procedure: Eukaryotic expression vectors pRShRAR-α (Giguere et al. Nature 330:624 (1987)), pRShRAR-β (Benbrook et al. Nature 333:669 (1988)) and pRShRAR-γ (Ishikawa et al. Mol. Endocrinol. 4:837 (1990)) were cotransfected with the Δ-MTV-Luc reporter plasmid described by Hollenberg et al. (Cell 55:899.(1988)). […] Calcium phosphate transfections were carried out exactly as described in Example 6. […] Cell lysates and luciferase activity measurements were also performed as in Example 6.

[3] = Example 3: recovery from preexisting retinoid toxicity (body weight); assay type: in vivo, mice
Procedure: Groups of these same mice (n=5) were then treated topically either with vehicle or AGN 193109 in vehicle (4 ml/kg) daily for 3 consecutive days beginning on day 3. Mice were weighed on days 1-5 and on day 8. Body weights are expressed as the mean±SD. Means were compared statistically using an unpaired, two-tailed t-test. Differences were considered significant at P<0.05.

[4] = topical AGN 191183 0.13 mg/kg/d days 1-2, then topical AGN 193109 days 3-5, mean±SD

With `Cc1ccc(C2=CCC(C)(C)c3ccc(C#Cc4ccc(C(=O)O)cc4)cc32)cc1` [Compound 60, 4-[(5,6-dihydro-5,5-dimethyl-8-(4-methylphenyl)-2-naphthalenyl)ethynyl]benzoic acid] the “RAR-γ-VP-16 activity at the ΔMTV-TREp-Luc reporter” value (RAR-γ-VP-16) was “inhibited”, the “serum triglycerides versus control” value ([1]; AGN 193109 with AGN 191659 at molar ratios of 1:1 and 5:1) was “reduced serum triglycerides to levels that were not significantly different from control” and the “Serum Triglycerides” value ([1]; group B: AGN 193109 19.6 mg/kg oral alone, male Fischer rats) was 52.4 ± 6.3 mg/dL. The “Serum Triglycerides” value ([1]; group D: AGN 193109 3.9 mg/kg + AGN 191659 3.7 mg/kg oral) was 55.7 ± 14.7 mg/dL, the “Serum Triglycerides” value ([1]; group E: AGN 193109 19.6 mg/kg + AGN 191659 3.7 mg/kg oral) was 72.7 ± 8.9 mg/dL and the “frequency and severity of tractional retinal detachment” value (rabbits; AGN 193109 100 μg + retinoic acid 10 μg intravitreal) was “significantly reduced frequency and severity of retinal detachment”. For the same compound, the “incidence and severity of retinal detachment” value (rabbits; second study, AGN 193109 100 μg + thyroid hormone 100 μg) was “significantly reduced incidence and severity of retinal detachment”, the “retinal detachment compared with control rabbits” value (rabbits; second study, single agent 100 μg intravitreal) was “does not inhibit retinal detachment” and the “enhancement of the antiproliferative activity of ATRA” value ([2]; 10^−10 M ATRA with 10^−7 M AGN 193109 equals 10^−8 M ATRA alone) was “approximately 100 fold”. For the same compound, the “potency of 13-cis RA in repression of RPE cell proliferation” value ([2]; AGN 193109 10^−8 or 10^−6M with 13-cis RA 10^−12 to 10^−6M) was “dramatically increased the potency of 13-cis RA”, the “growth rate of the RPE cells” value ([2]; AGN 193109 alone, 10^−10 to 10^−6 M) was “did not substantially alter the growth rate of the RPE cells” and the RPE cell proliferation ([2]; dexamethasone 10^−11 to 10^−6M with 10^−8 or 10^−6M AGN 193109) was “repressed RPE cell proliferation to an extent that approximated the inhibition caused by treatment with ATRA”. For the same compound, the RPE cell proliferation ([2]; thyroid hormone 10^−11 to 10^−6M with AGN 193109 10^−8 or 10^−6M) was “inhibited RPE cell proliferation in a thyroid hormone dependent manner”, the “inhibition of luciferase activity relative to ATRA alone” value (RARα) was “greater than 50%” and the “body weight relative to vehicle treatment” value ([3]; after AGN 191183-induced weight loss, t-test, P<0.05) was “significantly increased body weight relative to vehicle treatment on days 4 and 5”. The “Body Weight (g) DAY 1” value [3, 4] was 23.9 ± 1.0 g, the “Body Weight (g) DAY 2” value [3, 4] was 23.5 ± 1.2 g and the “Body Weight (g) DAY 3” value [3, 4] was 21.4 ± 0.6 g. For the same compound, the “Body Weight (g) DAY 4” value [3, 4] was 22.2 ± 0.7 g, the “Body Weight (g) DAY 5” value [3, 4] was 22.8 ± 0.8 g and the “Body Weight (g) DAY 8” value [3, 4] was 25.0 ± 1.1 g.
